Source: the NIST ThermoML archive (doi:10.1021/acs.jced.6b00180)
± gives the expanded uncertainty stated by the source.

Tests used:
[1] = Liquid, Ebulliometric method (Recirculating still)
[2] = refractive index (Na D-line) (dimensionless); details: 293.15 K; 101.33 kPa; Liquid; Standard Abbe refractometry
[3] = Boiling temperature at pressure P; details: 101.33 kPa; Liquid; Ebulliometric method (Recirculating still)

Structure (SMILES) | refractive index [2] | Boiling temperature at pressure P [3] | further results
C=CC(=C)C [2-methyl-1,3-butadiene] | 1.4218 ± 0.0005 |  | vapor or sublimation pressure ([1]; 336.35 K): 250 ± 13 kPa
CC=C(C)C [2-methyl-2-butene] | 1.3876 ± 0.0005 |  | vapor or sublimation pressure ([1]; 341.15 K): 250 ± 13 kPa
CCC(C)C [2-methylbutane] | 1.3535 ± 0.0005 |  | vapor or sublimation pressure ([1]; 330.05 K): 250 ± 13 kPa
CC(C)=O [acetone] | 1.3586 ± 0.0005 | 56.2 ± 1 °C | vapor or sublimation pressure ([1]; 329.35 K): 101.3 ± 5.1 kPa
C1CCCC1 [cyclopentane] | 1.4064 ± 0.0005 |  | vapor or sublimation pressure ([1]; 352.85 K): 250 ± 13 kPa
C1=CCCC1 [cyclopentene] | 1.4224 ± 0.0005 |  | vapor or sublimation pressure ([1]; 347.35 K): 250 ± 13 kPa
CCO [ethanol] | 1.3613 ± 0.0005 | 78.4 ± 1 °C | vapor or sublimation pressure ([1]; 351.55 K): 101.3 ± 5.1 kPa
CCCCCC [hexane] | 1.3748 ± 0.0005 |  | 
CO [methanol] | 1.3286 ± 0.0005 | 64.7 ± 1 °C | 
CCCCC [pentane] | 1.3578 ± 0.0005 |  | vapor or sublimation pressure ([1]; 338.35 K): 250 ± 13 kPa
